This experiment deals with neurites emerging from the neurospheres. Briefly: Maximum extension of neurites emerging from neurospheres in modified co-culture microdevice. The format is cell-based, human. Particulars: NGF added or not to the matrigel in the middle punched hole; 3N medium or 75% CM plus HEKn; FIG. 14C. As for the experimental part: Keratinocytes moved faster than the dendrites and since removing the microdevice sometimes meant that neurospheres were pulled from the substrate, a hole between the wells of the same pair was punched and the keratinocytes were placed within this hole (FIG. 13A, red arrow). The region where there was a predominance of migrating neurites was observed and the highest migration radius was measured (FIG. 13B, blue arrow).
To further test this modified co-culture microdevice, the culture media (3N versus 75% CM from HEKn) and the presence (or not) of matrigel in the middle hole were compared by measuring the maximum extension of the neurites emerging from the neurospheres (FIG. 14A). There were no statistically significant differences. Then, the extension of neurites in the presence or absence of keratinocytes in the hole were compared. Again, no differences were observed (FIG. 14B). Finally, another variable was tested: adding NGF or not to the matrigel in the middle punched hole.

As to nerve growth factor [NGF], the “maximum extension of the neurites (neurite migration)” value is “trend of NGF to increase migration”.

The values above are taken from patent US20210270813A1, “KIT, METHOD FOR SCREENING AN ACTIVE COMPOUND IN VITRO AND USES OF A KIT” (L'OREAL, priority 2018, published 2021).
